Where a name gives a salt, the structure may show the parent alone.

The text below walks through data of patent publication US8317991B2, “Process for electrokinetic migration through liquid membranes” (priority 2005, dated 2012).

A short description of one data set: Electrokinetic cross-membrane isolation (ECMI) of basic drugs; recovery in acceptor solution by capillary electrophoresis. It is filed as physicochemical. Also noted: key to Recovery: *: Recovery was observed, but results were unreliable due to large standard deviations. The conditions noted are these: liquid membrane 2-octanone; 300 V; 5 min; 5.2 mm vial.
Protocol: The DC power supply used was a model XFR 300-9 (Xantrex, Burnaby, BC, Canada) with a programmable voltage in the range 0 to 300 V, providing currents in the range 0 to 9 A. Simple steel wires with a diameter of 0.2 mm were used as electrodes in the sample and acceptor solutions, and were connected to the power supply. As sample compartment, 800 μL polypropylene vials with cap were used with a height of 35 mm and with an internal diameter of 5.2 mm (unknown supplier). […] The porous hollow fiber used for immobilization of the artificial liquid membrane and for housing the acceptor solution was a PP Q3/2 polypropylene hollow fiber (Membrana, Wuppertal, Germany) with an internal diameter of 1.2 mm, with a 200 μm wall thickness, and with 0.2 μm pores. The ECMI was agitated at 1200 rpm during the experiments with a Vibramax 100 agitator (Heidolph, Kelheim, Germany).
ECMI was performed according to the following procedure; 300 μl acidified sample solution was filled into a polypropylene vial, and the positive electrode was placed in the sample. A 3.1 cm piece of polypropylene hollow fiber was closed in the lower end by mechanical pressure, whereas the upper end was connected to a 2.2 cm length pipette tip of polypropylene as a guiding tube. The hollow fiber and the guiding tube were then inserted through the cap of the sample vial. The hollow fiber was dipped for 5 s in the organic solvent serving as the artificial liquid membrane (typically 2-nitrophenyl octyl ether, nitrobenzene, 1-isopropyl nitrobenzene, octanol or heptanol), and excess of solvent was removed with a medical wipe. With a micro syringe, 30 μL of acceptor solution was filled into the hollow fiber, and the negative electrode was placed in the acceptor solution. Finally, the hollow fiber with acceptor solution was placed into the sample, and voltage (typically 300 V) was applied for 5 minutes. After electrokinetic cross-membrane isolation, the acceptor solution was collected with a micro syringe, and was transferred to a micro insert for the capillary electrophoresis instrument.
Capillary electrophoresis was performed with a MDQ instrument (Beckman, Fullerton, Calif., USA) equipped with a UV-detector. Separations were accomplished in a 75-μm-i.d. fused-silica capillary with an effective length of 20 cm (Beckman). The running buffer was 15 mM phosphate adjusted to pH 2.7 with ortho-phosphoric acid. The instrument was operated at 20 kV, which generated a current level of approximately 50 μA. Samples were introduced by hydrodynamic injection at 0.5 psi for 5 s. Detection was accomplished at 200 nm utilizing a 100×800 μm slit.
Recovery (R) during the cross-membrane isolation was calculated according to the following equation for each analyte: R=na,final/ns,initial×100%=(Va/Vs)(Ca,final/Cs,initial)·100% (1) where ns,initial and na,final are the number of moles of analyte originally present in the sample and the number of moles of analyte finally collected in the acceptor solution, respectively. Va is the volume of acceptor phase, Vs is the volume of sample, Ca,final is the final concentration of analyte in the acceptor phase, and Cs,initial is the initial analyte concentration within the sample.
Enrichment (E) during the cross-membrane isolation was calculated according to the following equation for each analyte: E=Ca,final/Cs,initial (2) Results and Discussion Initial Experiments.
Regarding `CNCCC=C1c2ccccc2CCc2ccccc21` [Nortriptyline, nortriptyline hydrochloride], the Recovery result is recorded as “*”. Consider `CCC(=O)C(CC(C)N(C)C)(c1ccccc1)c1ccccc1` (centres unmarked) [Methadone, methadone hydrochloride], for which the Recovery result is on record as “*”. Still for that read-out and setting: the same measure for `CN(C)C(=O)C(CCN1CCC(O)(c2ccc(Cl)cc2)CC1)(c1ccccc1)c1ccccc1` [Loperamide, loperamide hydrochloride]: “*”; for `CCOC(=O)C1(c2ccccc2)CCN(C)CC1` [Pethidine, Pethidine hydrochloride]: “*”; for `O=C(CCCN1CCC(O)(c2ccc(Cl)cc2)CC1)c1ccc(F)cc1` [Haloperidol, haloperidol]: “*”.

The data set is the same for the next values; noted with them: optimal ECMI; 300 μl sample to 30 μl acceptor.
On to `CNCCC=C1c2ccccc2CCc2ccccc21` [Nortriptyline, nortriptyline hydrochloride], for which the Enrichment turned out to be 7.0. Still for that read-out and setting: the same measure for `CCC(=O)C(CC(C)N(C)C)(c1ccccc1)c1ccccc1` (centres unmarked) [Methadone, methadone hydrochloride]: 7.9.

Take `CN(C)C(=O)C(CCN1CCC(O)(c2ccc(Cl)cc2)CC1)(c1ccccc1)c1ccccc1` [Loperamide, loperamide hydrochloride]: the Enrichment is recorded as 7.6. Still for that read-out and setting: the same measure for `CCOC(=O)C1(c2ccccc2)CCN(C)CC1` [Pethidine, Pethidine hydrochloride]: 7.0; for `O=C(CCCN1CCC(O)(c2ccc(Cl)cc2)CC1)c1ccc(F)cc1` [Haloperidol, haloperidol]: 7.2.

Experiment in the next data set: not given
The following applies: 1-octanol/water partition coefficient; Clarkes Analysis of Drugs and Poisons; cited from earlier work.
For `COc1ccc(CN(CCN(C)C)c2ccccn2)cc1` [Mepyramine, mepyramine], the “log P” value was 2.8.

Regarding `OCCOCCN1CCN(C(c2ccccc2)c2ccc(Cl)cc2)CC1` (centres unmarked) [Hydroxyzine, hydroxyzine], the lipophilicity (log P) is listed as 2.4. `CNCCC=C1c2ccccc2CCc2ccccc21` [Nortriptyline, nortriptyline hydrochloride]: the log partition coefficient (log P) was 1.7.

Turning to `OCCN1CCN(CCCN2c3ccccc3Sc3ccc(C(F)(F)F)cc32)CC1` [Fluphenazine, fluphenazine], the “log P” value was 3.5. With `C[C@H](N)[C@H](O)c1cccc(O)c1` [Metaraminol, metaraminol hydrochloride], the log partition coefficient (log P) was −0.3. For the compound `CC(CN1c2ccccc2Sc2ccccc21)N(C)C` (centres unmarked) [Promethazine, promethazine], the “log P” value is recorded as 2.9. As for `CN(C)CCCN1c2ccccc2CCc2ccc(Cl)cc21` [Clomipramine, clomipramine], the lipophilicity (log P) was 5.2.

Regarding `CN(C)C(=O)C(CCN1CCC(O)(c2ccc(Cl)cc2)CC1)(c1ccccc1)c1ccccc1` [Loperamide, loperamide hydrochloride], the “log P” value is 5.2.

Turning to `O=C(CCCN1CCC(O)(c2ccc(Cl)cc2)CC1)c1ccc(F)cc1` [Haloperidol, haloperidol], the log partition coefficient (log P) is on record as 3.2. Turning to `c1ccc(C2(N3CCCCC3)CCCCC2)cc1` [Phencyclidine, phencyclidine], the lipophilicity (log P) is reported as 4.7. For `CC(=O)Nc1ccc(OCC(O)CNC(C)C)cc1` (centres unmarked) [Practolol, practolol], the lipophilicity (log P) is recorded as −1.3. On to `CN1CCC[C@@H]1CCO[C@](C)(c1ccccc1)c1ccc(Cl)cc1` [Clemastine, clemastine], for which the “log P” value is given as 5.7.

Experiment in another data set: not given
The conditions noted are these: Clarkes Analysis of Drugs and Poisons; cited from earlier work.
Regarding `C[C@H](N)[C@H](O)c1cccc(O)c1` [Metaraminol, metaraminol hydrochloride], the pKa is on record as 8.6. `CN(C)C(=O)C(CCN1CCC(O)(c2ccc(Cl)cc2)CC1)(c1ccccc1)c1ccccc1` [Loperamide, loperamide hydrochloride]: the pKa was 8.1. `CN[C@@H](C)Cc1ccccc1` [Metamfetamine, methamphetamine sulphate]: the pKa is recorded as 10.1.

`CN1CCC[C@@H]1CCO[C@](C)(c1ccccc1)c1ccc(Cl)cc1` [Clemastine, clemastine]: the pKa is given as 10.2.

The term log P denotes a log measure of how a compound divides between an organic and an aqueous phase. As a reminder, the pKa is the negative logarithm of the acid dissociation constant.
